In US8546440B2, “Substituted bicyclic imidazole derivatives as gamma secretase modulators” (Janssen Pharmaceuticals, Inc., priority 2008, dated 2013) one finds melting point and IC50 data, which are given here for eight molecules.

One may read the melting point as the temperature of the solid-liquid transition. As a reminder, the IC50 is the concentration at which inhibition is half-maximal. Lower therefore signals greater potency in that assay.

For data set [1], the system named is Aβtotal. As to the kind of experiment: Screening for γ-secretase-modulating activity, Method 2: Aβtotal Alphalisa in supernatant of SKNBE2 cells carrying APP 695 wild type (Table 12c). It counts as cell-based. Particulars: Homo sapiens, Method 2, Table 12c, incubated overnight. The gist of the method:
(§1)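 SKNBE2 cells expressing wild-type APP695, 10^4 cells/well, exposed to compound overnight at 37 °C; secreted Aβ42 and Aβtotal in supernatant measured by AlphaLISA sandwich immunoassays (Aβ42: C-terminal/N-terminal antibodies; Aβtotal: N-terminal/4G8). IC50 from 4-parameter fit of % untreated control.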
(In general: Alpha assays give light when donor and acceptor beads are brought close together.)

Data set [2] has as its system Aβ42. As to the kind of experiment: Screening for γ-secretase-modulating activity, Method 2: Aβ42 Alphalisa in supernatant of SKNBE2 cells carrying APP 695 wild type (Table 12c). It counts as cell-based. The settings on record: Homo sapiens, Method 2, Table 12c, incubated overnight. An outline of the steps:
as §1

Data set [3] relates to Aβ42. As to the kind of experiment: Screening for γ-secretase-modulating activity, Method 1: Aβ42 sandwich ELISA in supernatant of SKNBE2 cells carrying APP 695 wild type (Tables 12a, 12b). It counts as cell-based. The settings on record: Homo sapiens. An outline of the steps: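 SKNBE2 cells expressing wild-type APP695 were treated with compound for 18 h, and secreted Aβ42 in the medium was quantified by sandwich ELISA (C-terminal-selective capture, biotinylated 3D6 detection, TMB read at 450 nm). IC50 came from 4-parameter fits of % inhibition or % of untreated control; toxicity was checked by WST-1.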

Data set [4] relates to Aβtotal. As to the kind of experiment: Screening for γ-secretase-modulating activity, Method 1: Aβtotal sandwich ELISA in supernatant of SKNBE2 cells carrying APP 695 wild type (Tables 12a, 12b). Type of data set: cell-based. The settings on record: Homo sapiens. The gist of the method:
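SKNBE2 cells expressing wild-type APP 695 were plated a day ahead, then exposed to compound in Ultraculture with 1% glutamine for 18 hours. Supernatant Aβtotal captured on 6E10 overnight at 4° C, detected with biotinylated 4G8 and streptavidin-peroxidase with a fluorogenic substrate. IC50 from 4-parameter dose-response fits.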
On the technique in general: An ELISA detects its analyte on a solid surface through an enzyme-linked reagent.

Setting [5] is: Method 1, Table 12a, SKNBE2 cells carrying APP 695 wild type, compounds 18 hours, ELISA, curve top and bottom fixed to 100 and 0, hill slope 1.
[6] abbreviates: Table 12b, Method 1, SKNBE2 cells carrying APP 695 wild type, cell supernatant ELISA, averaged IC50 values, percentage of control vs log concentration.
Setting [7] is: Table 12b, Method 1, SKNBE2 cells carrying APP 695 wild type, cell supernatant ELISA, averaged IC50 values.

Molecule `COc1nc(Nc2cc(C(C)C)nn3cc(-c4ccccc4Cl)nc23)ccc1-n1cnc(C)c1` [Compound 163] yielded a melting point of 179.3 °C. The half-maximal inhibitory concentration (IC50) in the data set on Aβtotal [1] worked out at 8.32 µM. Further, in the data set on Aβ42 [2], the IC50 came out at 0.166 µM.

For `COc1nc(Nc2cccn3c(C)c(-c4ccccc4Cl)nc23)ccc1-n1cnc(C)n1` [Compound 145], the melting point was found to be 250.3 °C. The molecule further returned an IC50 in the data set with Aβtotal [1] greater than 10 µM. The same molecule gave a 50% inhibitory concentration (IC50) in the data set on Aβ42 [2] of 0.007 µM.

`COc1cc(Nc2cccn3c(OC)c(-c4ccc(F)cc4)nc23)ccc1-n1cnc(C)n1` [Compound 132]: the melting point worked out at 165.1 °C. The molecule further showed a concentration for half-maximal inhibition (IC50) with Aβtotal [1] of 6.92 µM. This molecule also returned a half-maximal inhibitory concentration (IC50) in the data set on Aβ42 [2] of 0.251 µM.

In turn, `Cc1cn2cccc(Nc3ccc(-n4cnc(C)n4)cc3)c2n1` [Compound 78] showed a melting point of 213.1 °C. In the data set with Aβ42 [3] (setting [5]), inhibition was half-maximal at 6.44 µM (IC50). Besides, inhibition in the data set on Aβ42 [3] (setting [6]) was half-maximal at 9.55 µM (IC50). The same molecule registered an IC50 with Aβtotal [4] (setting [5]) greater than 10 µM. In the data set with Aβtotal [4] (setting [7]), this molecule returned an IC50 greater than 10 µM.

Molecule `COc1cc(Nc2cccn3cc(-c4ccc(C#N)cc4)nc23)ccc1-n1cnc(C)c1` [Compound 31] had a melting point of 193.4 °C. In the data set on Aβ42 [3] (setting [5]), this molecule registered an IC50 of 0.595 µM. The same molecule showed an IC50 in the data set on Aβ42 [3] (setting [6]) of 0.589 µM. For the same molecule, the IC50 in the data set on Aβtotal [4] (setting [5]) is greater than 5 µM. This molecule had an IC50 in the data set on Aβtotal [4] (setting [7]) greater than 30.2 µM.

`COCCc1c(-c2ccc(F)cc2)nc2c(Nc3ccc(-n4cnc(C)n4)c(OC)c3)cccn12` [Compound 127] showed a melting point of 149.5 °C. Also, in the data set on Aβ42 [3] (setting [6]), the 50% inhibitory concentration (IC50) worked out at 0.089 µM. The molecule further yielded an IC50 in the data set with Aβtotal [4] (setting [7]) greater than 10 µM. The IC50 in the data set with Aβtotal [1] was greater than 10 µM. The molecule further showed an IC50 in the data set with Aβ42 [2] of 0.056 µM.

`COc1cc(Nc2cccn3cc(-c4cc(C#N)ccc4C)nc23)ccc1-n1cnc(C)c1` [Compound 105] returned a melting point of 127.5 °C. In the data set on Aβ42 [3] (setting [6]), this molecule showed an IC50 of 0.089 µM. The 50% inhibitory concentration (IC50) in the data set with Aβtotal [4] (setting [7]) is greater than 3.02 µM. Besides, it took 6.61 µM to reach half-maximal inhibition with Aβtotal [1] (IC50). The molecule also had an IC50 in the data set on Aβ42 [2] of 0.032 µM.

In turn, `Cc1ncn(-c2ccc(Nc3cccn4c(C)c(C)nc34)cc2)n1` [Compound 79] showed a melting point of 230.6 °C. In the data set on Aβ42 [3] (setting [6]), this molecule came in with an IC50 of 7.41 µM. This molecule also displayed a concentration for half-maximal inhibition (IC50) in the data set with Aβtotal [4] (setting [7]) greater than 10 µM.
